Data set [1] has as its target Isocitrate dehydrogenase [NADP], mitochondrial (Homo sapiens, UniProt P48735, R140Q). Kind of data set: Inhibition of IDH2 R140Q mutant (unknown origin) assessed as reduction in NADPH consumption using alpha-ketoglutarate and NADPH as substrate preincubated with enzyme for 15 mins followed by substrate addition by fluorescence based assay.
In data set [2] the target is Isocitrate dehydrogenase [NADP], mitochondrial (Homo sapiens, UniProt P48735, R172K). In words: Inhibition of IDH2 R172K mutant (unknown origin) assessed as reduction in NADPH consumption using alpha-ketoglutarate and NADPH as substrate preincubated with enzyme for 15 mins followed by substrate addition by fluorescence based assay.
Isocitrate dehydrogenase [NADP], mitochondrial (Homo sapiens, UniProt P48735, R172K), sequence (P48735 40-452 R172K limits assumed): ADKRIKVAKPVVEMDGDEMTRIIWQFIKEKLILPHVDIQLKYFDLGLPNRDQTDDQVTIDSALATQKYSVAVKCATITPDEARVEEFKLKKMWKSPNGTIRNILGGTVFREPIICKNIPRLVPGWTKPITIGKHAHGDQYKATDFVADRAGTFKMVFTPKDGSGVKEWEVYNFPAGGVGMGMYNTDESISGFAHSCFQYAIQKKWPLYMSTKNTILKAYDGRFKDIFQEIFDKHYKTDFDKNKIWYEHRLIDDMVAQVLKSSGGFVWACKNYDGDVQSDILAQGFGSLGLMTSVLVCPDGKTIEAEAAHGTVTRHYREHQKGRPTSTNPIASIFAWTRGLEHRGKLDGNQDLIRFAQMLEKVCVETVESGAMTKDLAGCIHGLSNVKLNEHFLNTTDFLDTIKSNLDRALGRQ
Data set [3] concerns the target T1, Isocitrate dehydrogenase [NADP], mitochondrial (Homo sapiens, UniProt P48735).
T1 sequence (P48735 whole entry): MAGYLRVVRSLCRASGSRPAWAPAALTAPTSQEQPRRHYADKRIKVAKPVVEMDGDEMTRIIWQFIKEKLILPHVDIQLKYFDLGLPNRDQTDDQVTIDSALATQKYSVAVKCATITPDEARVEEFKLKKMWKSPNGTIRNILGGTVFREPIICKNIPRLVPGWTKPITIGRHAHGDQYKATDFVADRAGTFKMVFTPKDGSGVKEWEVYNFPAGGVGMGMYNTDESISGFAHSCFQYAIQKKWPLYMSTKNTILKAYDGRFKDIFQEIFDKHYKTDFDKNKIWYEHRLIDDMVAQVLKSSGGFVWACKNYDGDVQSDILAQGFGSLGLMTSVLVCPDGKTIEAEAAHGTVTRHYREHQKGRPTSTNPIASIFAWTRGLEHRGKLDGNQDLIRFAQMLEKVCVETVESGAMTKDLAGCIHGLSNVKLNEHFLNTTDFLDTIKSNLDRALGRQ
In words: Inhibition of wild type IDH2 (unknown origin) assessed as reduction in NADPH production using sodium(D)-isocitrate and NADP as substrate preincubated with enzyme for 15 mins followed by substrate addition by fluorescence based assay.

Data set [4] concerns TF-1. Kind of data set: Cytotoxicity aganist human TF-1 cells harboring IDH2 mutant. It counts as functional, cell-based.
Data set [5] is described as follows: Metabolic stability in human liver microsomes assessed as parent compound remaining at 100 ug/ml measured after 15 mins in presence of NADPH by LC-MS analysis. The settings on record: at 100 µg/mL, read-out: Stabilty. It counts as ADME, Microsome. On the technique in general: Liver microsomes are a subcellular fraction often used to study metabolism.
Data set [6] in a line: Metabolic stability in human liver microsomes assessed as parent compound remaining at 100 ug/ml measured after 45 mins in presence of NADPH by LC-MS analysis. It counts as ADME, Microsome. The note with it: at 100 µg/mL, read-out: Stabilty.
A short description of data set [7]: Metabolic stability in human liver microsomes assessed as parent compound remaining at 100 ug/ml measured after 90 mins in presence of NADPH by LC-MS analysis. It counts as ADME, Microsome. The note with it: at 100 µg/mL, read-out: Stabilty.
Data set [8] deals with WI-38. In words: Cytotoxicity aganist human WI-38 cells. It counts as cell-based.
Data set [9] in a line: Cytotoxicity aganist human PBMC cells. The format is cell-based.

Where a name gives a salt, the structure may show the parent alone.

Isocitrate dehydrogenase [NADP], mitochondrial (Homo sapiens, UniProt P48735, R140Q), sequence (P48735 40-452 R140Q limits assumed): as the sequence (P48735 40-452 R172K limits assumed) above, with R101Q, K133R counted along it

With `FC(F)(F)c1cc2cc(c1)Nc1nc(nc(-c3cccc(C(F)(F)F)n3)n1)NCCCCCCCC2`, the IC50 – broadly, the concentration that gives 50% inhibition – in data set [1] was 37.2 nM; in data set [2], 131 nM; in [3], greater than 20000 nM; in data set [4] it was greater than 10000 nM. Further, the remaining at 0.25 h, 100 ug/ml in data set [5] is greater than 99%. In data set [6], the remaining at 0.75 h, 100 ug/ml worked out at 75%. Moreover, the remaining at 1.5 h, 100 ug/ml in data set [7] was 72%.

As for `Cc1cc2cc(c1)Nc1nc(nc(-c3cccc(C(F)(F)F)n3)n1)NCCOCCCC2`, the IC50 is 22.2 nM in [1], 1320 nM in [2] and greater than 20000 nM in data set [3].

For `FC(F)(F)c1cc2cc(c1)Nc1nc(nc(-c3cccc(C(F)(F)F)n3)n1)NCCCCC/C=C/C2`, the results for the IC50 in data set [1], in data set [2] and in data set [3] were 37.6 nM, 92.7 nM and greater than 20000 nM, respectively.

For the compound `FC(F)(F)c1cc2cc(c1)OC/C=C\CCCNc1nc(nc(-c3cccc(C(F)(F)F)n3)n1)N2`, the IC50 in data set [1] was 17.4 nM; in data set [2] it was 50.3 nM; in [3], greater than 20000 nM.

For `Fc1cc2cc(c1)Nc1nc(nc(-c3cccc(C(F)(F)F)n3)n1)NCCOC/C=C\C2`, the IC50 in [1] is 29.5 nM; in data set [2], 688 nM; in data set [3] it was greater than 20000 nM.

`O=C1OCCCCCNc2nc(nc(-c3cccc(C(F)(F)F)n3)n2)Nc2cc1cc(C(F)(F)F)c2`: the IC50 in data set [1] was 105 nM; in data set [2], 314 nM; in [3], greater than 20000 nM.

Take `CC(C)(O)CNc1nc(Nc2ccncc2)nc(-c2cccc(C(F)(F)F)n2)n1`: the IC50 in [1] was 663 nM; in [2], greater than 10000 nM; in [3], greater than 20000 nM; in data set [4] it was greater than 10000 nM.

In the case of `C=CCOC(C)(C)CNc1nc(Nc2cccc(C(F)(F)F)c2)nc(-c2cccc(C(F)(F)F)n2)n1`, the IC50 in [1] was 32.8 nM; in data set [2], 15.5 nM; in [3] it was greater than 20000 nM.

Take `Cc1cc2cc(c1)Nc1nc(nc(-c3cccc(C(F)(F)F)n3)n1)NCCOC/C=C\C2`: the IC50 in data set [1] is 37.9 nM; in [2] it was 830 nM; in data set [3] it was greater than 20000 nM.

Turning to `FC(F)(F)c1cc2cc(c1)Nc1nc(nc(-c3cccc(C(F)(F)F)n3)n1)NCCCCCC2`, the 50% inhibitory concentration (IC50) was 6.1 nM in data set [1], 219 nM in [2], greater than 20000 nM in data set [3] and greater than 10000 nM in [4]. The remaining at 0.25 h, 100 ug/ml in data set [5] was 95%. For the same compound, the remaining at 0.75 h, 100 ug/ml in data set [6] turned out to be 94%. For the same compound, the remaining at 1.5 h, 100 ug/ml in data set [7] is 85%.

For `C=CCOC(C)(C)CNc1nc(Nc2ccccc2)nc(-c2cccc(C(F)(F)F)n2)n1`, the concentration for half-maximal inhibition (IC50) is 46 nM in [1], 167 nM in [2], greater than 20000 nM in data set [3] and greater than 10000 nM in data set [4].

Take `FC(F)(F)c1cc2cc(c1)OCCCCCNc1nc(nc(-c3cccc(C(F)(F)F)n3)n1)N2`: the IC50 in data set [1] was 51 nM; in data set [2] it was 116 nM; in data set [3] it was greater than 20000 nM.

For `CC1CNc2nc(nc(-c3cccc(C(F)(F)F)n3)n2)Nc2cc(cc(C(F)(F)F)c2)C/C=C\CO1` (configuration not stated), the half-maximal inhibitory concentration (IC50) was 267 nM in [1] and greater than 20000 nM in [3].

`CC(C)(O)CNc1nc(Nc2cccc(C(F)(F)F)c2)nc(-c2cccc(C(F)(F)F)n2)n1`: the concentration for half-maximal inhibition (IC50) in data set [1] was 26 nM; in [2] it was 119 nM; in data set [3], greater than 20000 nM; in [4], greater than 10000 nM. In addition, the remaining at 0.25 h, 100 ug/ml in data set [5] stood at 86%. The remaining at 0.75 h, 100 ug/ml in [6] was determined as 81%. The remaining at 1.5 h, 100 ug/ml in data set [7] amounted to 81%.

For `FC(F)(F)c1cc2cc(c1)Nc1nc(nc(-c3cccc(C(F)(F)F)n3)n1)NCCCCCCC2`, the IC50 in data set [1] was 19.9 nM; in data set [2], 30.1 nM; in [3] it was greater than 20000 nM.

As to `CC1(C)CCNc2nc(nc(-c3cccc(C(F)(F)F)n3)n2)Nc2cc(cc(C(F)(F)F)c2)CCCCO1`, the figures for the IC50 in data set [1], in [2] and in data set [3] were 182 nM, 455 nM and greater than 20000 nM, respectively.

Consider `FC(F)(F)c1cc2cc(c1)OCCCCCCNc1nc(nc(-c3cccc(C(F)(F)F)n3)n1)N2`, for which the IC50 in data set [1] was 133 nM; in [2], 45.5 nM; in data set [3], greater than 20000 nM. Moreover, in [5], the remaining at 0.25 h, 100 ug/ml was determined as 93%. Besides, in [6], the remaining at 0.75 h, 100 ug/ml was determined as 97%. For the same compound, in [7], the remaining at 1.5 h, 100 ug/ml turned out to be 85%.

On to `CC(C)(O)CNc1nc(Nc2ccnc(C(F)(F)F)c2)nc(-c2cccc(C(F)(F)F)n2)n1` [ENASIDENIB MESYLATE], for which the IC50 in data set [1] came out at 124 nM; in [2], 319 nM.

Consider `CC(C)(O)CNc1nc(Nc2ccccc2)nc(-c2cccc(C(F)(F)F)n2)n1`, for which the IC50 in data set [1] is 98.2 nM; in data set [2] it was 1430 nM; in data set [3], greater than 20000 nM.

In the case of `FC(F)(F)c1cc2cc(c1)Nc1nc(nc(-c3cccc(C(F)(F)F)n3)n1)NCCCC/C=C/C2`, the values for the IC50 in data set [1], in data set [2] and in [3] were 37.6 nM, 46.9 nM and greater than 20000 nM, respectively.

In the case of `O=C1NCCCCNc2nc(nc(-c3cccc(C(F)(F)F)n3)n2)Nc2cc1cc(C(F)(F)F)c2`, the IC50 in data set [1] is 699 nM; in data set [2], greater than 10000 nM; in data set [3] it was greater than 20000 nM.

For `CC1(C)CNc2nc(nc(-c3cccc(C(F)(F)F)n3)n2)Nc2cc(cc(C(F)(F)F)c2)OCCCO1`, the results for the IC50 in [1], in data set [2] and in [3] were 79.3 nM, 27.4 nM and greater than 20000 nM, respectively.

Take `FC(F)(F)c1cccc(-c2nc3nc(n2)Nc2cc(Cl)cc(c2)C/C=C\COCCN3)n1`: the IC50 in data set [1] was 36 nM; in data set [2] it was 417 nM; in [3], greater than 20000 nM.

As for `CC1CNc2nc(nc(-c3cccc(C(F)(F)F)n3)n2)Nc2cc(cc(C(F)(F)F)c2)CCCCO1` (configuration not stated), the IC50 in data set [1] is 45.6 nM; in data set [2], 17.7 nM; in [3], greater than 20000 nM.

Regarding `CC(C)(O)CNc1nc(Nc2ccnc(C(F)(F)F)c2)nc(-c2cccc(C(F)(F)F)n2)n1` [ENASIDENIB], the IC50 in data set [1] was 35.9 nM; in data set [2] it was 269 nM; in data set [3], greater than 20000 nM.

For `FC(F)(F)c1cc2cc(c1)Nc1nc(nc(-c3cccc(C(F)(F)F)n3)n1)NCCOC/C=C\C2`, the IC50 in data set [8] was 10000 nM; in data set [1], 39.9 nM; in [2], 210 nM; in data set [3] it was greater than 20000 nM; in data set [9], 10000 nM.

Turning to `Fc1cc2cc(c1)Nc1nc(nc(-c3cccc(C(F)(F)F)n3)n1)NCCOCCCC2`, the IC50 was 18.6 nM in [1], 881 nM in data set [2] and greater than 20000 nM in data set [3].

In the case of `FC(F)(F)c1cc2cc(c1)OC/C=C\CCNc1nc(nc(-c3cccc(C(F)(F)F)n3)n1)N2`, the IC50 in data set [1] is 18.4 nM; in data set [2] it was 1570 nM; in [3], greater than 20000 nM. In [5], the remaining at 0.25 h, 100 ug/ml worked out at 89%. In addition, the remaining at 0.75 h, 100 ug/ml in data set [6] is 66%. Also, the remaining at 1.5 h, 100 ug/ml in data set [7] was 64%.

In the case of `FC(F)(F)c1cccc(-c2nc3nc(n2)Nc2cc(Cl)cc(c2)CCCCOCCN3)n1`, the values for the IC50 in data set [1], in [2] and in data set [3] were 12.2 nM, 443 nM and greater than 20000 nM, respectively.

With `FC(F)(F)c1cc2cc(c1)Nc1nc(nc(-c3cccc(C(F)(F)F)n3)n1)NCC/C=C/C2`, the IC50 in data set [1] is 683 nM; in data set [2], greater than 10000 nM; in data set [3] it was greater than 20000 nM; in data set [4] it was greater than 10000 nM.

For `FC(F)(F)c1cc2cc(c1)Nc1nc(nc(-c3cccc(C(F)(F)F)n3)n1)NCCOCCCC2`, the IC50 was 10000 nM in data set [8]; 64.4 nM in [1]; 517 nM in data set [2]; greater than 20000 nM in [3]; 10000 nM in [9].

For the compound `CC1(C)CNc2nc(nc(-c3cccc(C(F)(F)F)n3)n2)Nc2cc(cc(C(F)(F)F)c2)C/C=C\CO1`, the IC50 is 396 nM in [1] and greater than 20000 nM in [3].

Regarding `CC1(C)CNc2nc(nc(-c3cccc(C(F)(F)F)n3)n2)Nc2cc(cc(C(F)(F)F)c2)CCCCO1`, the IC50 in [8] was 10000 nM; in [1] it was 38.5 nM; in data set [2] it was 9.6 nM; in data set [3], greater than 20000 nM; in data set [9] it was 10000 nM.

With `FC(F)(F)c1cc2cc(c1)Nc1nc(nc(-c3cccc(C(F)(F)F)n3)n1)NCCCCC2`, the IC50 in data set [1] is 1240 nM; in [2], greater than 10000 nM; in [3] it was greater than 20000 nM; in data set [4], greater than 10000 nM.
